Measurements taken from BigSolDB 2.1.

Cc1c(C(=O)/C=C/c2ccccc2)[n+](=O)c2ccccc2n1[O-]
solubility (mole fraction)
Conditions	283.15 K	288.15 K	293.15 K	298.15 K	303.15 K	308.15 K	313.15 K	318.15 K	323.15 K	328.15 K
in DMF	0.00549	0.00639	0.00748	0.00856	0.00978	0.0111	0.0127	0.0145	0.0163	0.0187
in DMSO	–	–	0.00722	0.00807	0.00913	0.0103	0.0117	0.0132	0.0149	0.0167
in ethanol	9.81e-05	0.000123	0.000151	0.00019	0.000233	0.000288	0.000351	0.000425	0.000512	0.000611
in isopropanol	8.14e-05	0.000104	0.000133	0.00017	0.000217	0.000278	0.000348	0.000437	0.000541	0.000668
in water	2.49e-06	2.93e-06	3.4e-06	3.95e-06	4.62e-06	5.32e-06	6.12e-06	7e-06	7.96e-06	9.03e-06
